Tests used:
HCT116 xenograft tumors = assay: HCT116 xenograft in NSG mice, systemic (i.v.) treatment; assay type: in vivo, mouse
Protocol: (A) Growth kinetics of HCT116 tumors in NSG mice systemically treated with acet.-STAT3 peptides (1 mg/kg), with or without PS oligonucleotide conjugation, every other day (n = 5). SD is shown. Two-way ANOVA (Tukey’s multiple comparisons test) was used for analyzing the kinetics of tumor growth over the treatment period; ****P < 0.001. […] Lower 2 panels show input total STAT3 protein. […] Penetration of FAM-labeled PS-acet.-STAT3 peptide into tumors was also assessed by immunostaining followed by confocal imaging (second panel from top). The images are representative of 5 tumors per experimental group in A. Scale bars: 50 μm. Insets: original magnification, ×20. The graphs show the quantification for FAM and Ki-67 expression levels and of the mean vessel diameter (data include 5 fields of view per group). SD is shown. One-way ANOVA; ****P < 0.001; ***P < 0.005.
Mouse care and experimental procedures were performed under pathogen-free conditions in accordance with established institutional guidance and approved IACUC protocols from Research Animal Care Committee of the City of Hope. For s.c. tumor challenge, 5 × 10^6 HCT116 cells were injected into NSG mice from The Jackson Laboratory or animal resource core facility at the City of Hope. After tumors reached an average size of 80~100 mm^3, mice were locally or intravenously treated with 1 mg/kg of PO- or PS-peptides (Anaspec) every day or every other day. Control animals were treated with the equal volume of HBSS (Invitrogen, Thermo Fisher Scientific). Tumor growth was measured by a digital caliper every other day. To study the effects of the modified peptides at protein and gene levels, mice were euthanized 4–6 weeks after tumor injection. B16 melanoma lung metastasis was performed by injecting 0.5 × 10^6 B16 cells into bloodstream of C57BL/6 mice (The Jackson Laboratory). One day after tumor challenge, mice were treated intravenously (retro-orbitally) with 1 mg/kg of PO- or PS-acet.-STAT3, PS-unacet.-STAT3, or PS-STAT3-K685R peptides every other day until the endpoint as indicated. Control mice were treated with HBSS. Lungs were excised from the mice, and B16 nodules were visualized by gp100 staining. Lungs were then analyzed for immune responses by immunostaining followed by confocal imaging. For mouse PDAC model, 5 × 10^6 KPC mouse cells were mixed with Matrigel and subcutaneously injected into C57BL/6 mice (The Jackson Laboratory). […] Control animals were treated with the equal volume of HBSS (Invitrogen, Thermo Fisher Scientific). Tumor growth was measured by a digital caliper every other day. To study the effects of the modified peptides at protein and gene levels, mice were euthanized at the endpoint as indicated.

[1] = tested on: HCT116 xenografted tumors
Protocol: For in vivo study, HCT116 cells were subcutaneously engrafted into NSG mice. After tumors reached an average size of approximately 5 mm, mice were locally treated with 1 mg/kg of FAM-labeled PS-unacet.-STAT3, PS-STAT3-K685R, or PS-acet.-STAT3 peptides (Anaspec) every day for 35 days. Twenty-four hours after the last treatment, tumors were harvested and analyzed by IF staining and 20× immersion objective on LSM 700 confocal microscope (ZEISS). Images were quantified using Zen software (ZEISS).
Supplemental Figure 5 (related to Figure 2). […]
(C to G) Subcutaneous HCT116 xenografts treated with FAM-labeled PS-unacet.-STAT3, PS-STAT3-K685R or PS-acet.-STAT3 peptides every other day at 1 mg/kg for 40 days.
(C) Retention of PS-acet.-STAT3 peptide was visualized with IF staining of tissue sections followed by confocal microscopy. n= 6 tumor tissues. Scales, 50 µm.
(E) The mRNA levels of CASP9, BIRC5 and BCL2L1 from the same tumor tissues described above were assessed by qRT-PCR. SD is shown. n= 3 independent experiments. One-way […]
(F) IF staining of cell proliferation (Ki-67) and vascularization (CD-31) markers upon peptide treatments in HCT116 tumor tissues. Scales; 50 and 100 µm (upper panels). The lower panels show the quantification of Ki-67 and CD-31. n= 6 tumor tissues.
Same protein samples were used from (D).
Aftabizadeh and Li et al., Figure S5

PDIPKEEAFGK685(Ac)YCRPESQEHPC-linker-T*C*C*A*T*G*A*G*C*T*T*C*C*T*G*A*T*G*C*T [PS-acet.-STAT3 peptide]
tumor growth (HCT116 xenograft tumors; HCT116 s.c. in NSG mice, 1 mg/kg i.v. every other day, n = 5): significantly reduced
STAT3 activation in tumor xenografts (HCT116 xenograft tumors; HCT116 tumor tissues, immunoprecipitation and Western blotting): downregulated
cell death in tumor sections (H&E staining) (HCT116 xenograft tumors; HCT116 xenograft): massive cell death
cell proliferation marker Ki-67 and tumor angiogenesis marker CD31 in tumor tissues (HCT116 xenograft tumors; HCT116 xenograft, IF and confocal): significant reduction
proapoptotic genes (TP53, CASP9) in tumor tissues (HCT116 xenograft tumors; HCT116 xenograft, qRT-PCR): significantly upregulated
expression of STAT3 target genes MMP-9 (MMP9) and BCL-XL (BCL2L1) in tumors (HCT116 xenograft tumors; HCT116 xenograft, qRT-PCR and Western blotting): significantly reduced
tumor progression (proliferation marker Ki-67 and angiogenesis marker CD31) ([1]; HCT116 xenograft, 1 mg/kg local, IF staining): effectively inhibited
STAT3 phosphorylation in tumors ([1]; HCT116 xenograft, 1 mg/kg local, immunoprecipitation and Western blotting): effectively inhibited
transcriptional regulation (CASP9, BIRC5, BCL2L1 mRNA) in tumors ([1]; HCT116 xenograft, 1 mg/kg local, qRT-PCR): effectively inhibited
acetylation of STAT3 in tumors ([1]; HCT116 xenograft, same samples as STAT3 phosphorylation): only moderately suppressed
cellular retention of peptide in tumors in vivo ([1]; mouse, in vivo, 1 mg/kg): retained in tumors at significantly higher levels

Source: publication PMC7934871 (JCI Insight, 2021)
